According to patent US9585876B2 (NuSirt Sciences, Inc., priority 2013, dated 2017):
Each block holds one compound with its values, some of them ahead of it.

What was measured:
[1] = tested on: LDL receptor knockout (LDLRKO) mice; test: Plasma total cholesterol, cholesterol esters and triglycerides in LDLRKO mice on western diet, 28 days (Example 7); assay type: in vivo
Experimental: The mice were provided free access to an atherogenic western diet (WD) containing 0.21% cholesterol (by weight) and 40% calories from fat and water for 4 weeks prior to treatment. […] The treatments were administered for 28 days continuously.
Blood samples of the mice in all groups were obtained from tails of the mice at day 28 after the administration. The serum/plasma levels of triglyceride, total cholesterol and cholesterol esters were measured.

C. elegans = test: Lifespan of C. elegans (Example 8); assay type: in vivo, Caenorhabditis elegans; details: leucine (0.5 mM) or nicotinic acid (10 nM), each alone
Experimental: Eggs were hatched on a starved plate overnight. […] To study lifespan, 50 young adult worms were placed on NGM agar plates seeded with E. coli strain OP-50 (=day 1 of study). All treatments were added with the indicated concentrations to the agar plates. […] The worms were maintained at 21° C. throughout the duration of the study. Worms were transferred to new plates daily to eliminate progeny. […] The study was continued until the last animal was dead. Data were analyzed via Kaplan-Meier survival curves using Prism 6 (GraphPad Software) and statistical significance was determined by the Log-rank (Mantel-Cox) test.

[2] = oral dosing of about 3,000 mg; cited from earlier work
AMPK = details: 3T3-L1 adipocytes; concentrations of nicotinic acid <100 nM alone
Experimental: 3T3-L1 preadipocytes (American Type Culture Collection) were plated at a density of 8000 cells/cm2 (10 cm2 dish) and grown in Dulbecco's modified eagle's medium (DMEM) containing 10% fetal bovine serum (FBS), and antibiotics (growth medium) at 37° C. in 5% CO2. […] Preadipocytes were maintained in this differentiation medium for 3 days and subsequently cultured in growth medium. Cultures were re-fed every 2-3 days to allow >90% cells to reach fully differentiation before conducting chemical treatment.
Western blotting was performed with antibodies against AMPK and Phospho-AMPKα (Thr172) obtained from Cell Signaling (Danvers, Mass.). […] Total 30 μg of protein from the cell lysate was resolved on 10% Tris/HCL polyacrylamide gels (Criterion precast gel, Bio-Rad Laboratories, Hercules, Calif.), transferred to PVDF membranes, incubated in blocking buffer (3% BSA in TBS), incubated with primary antibody (P-AMPK), washed and incubated with secondary horseradish peroxidase-conjugated antibody.

[3] = tested on: LDL receptor knockout (LDLRKO) mice; test: Lipid levels, atherosclerotic plaque and cutaneous vasodilation in LDLRKO mice on atherogenic diet, 60 days (Example 4); assay type: in vivo; details: for HDL level in the blood stream compared to negative control group (atherogenic diet only) / triglyceride, LDL and cholesterol levels in the blood stream compared to negative control group (atherogenic diet only): 60 days
Experimental: All chemicals are purchased from Sigma.
Cutaneous vasodilation is measured by laser-Doppler flowmeter.

[4] = tested on: Patients that are pre-diagnosed with hyperlipidemia; test: Lipid levels and cutaneous vasodilation in hyperlipidemia patients, 60 days (Example 5); assay type: in vivo, human; details: for HDL level compared to day 0 values / triglyceride, LDL and cholesterol levels compared to day 0 values: orally twice a day, 60 days
Experimental: Patients that are pre-diagnosed with hyperlipidemia are admitted for the randomized and double blind study. […] The treatments are administered orally twice a day, for 60 days continuously.
Blood samples of the patients in all groups are obtained from at day 0, 30 and 60 after the administration. The serum/plasma levels of triglyceride, cholesterol, LDL and HDL are measured. Cutaneous vasodilation is measured by laser-Doppler flowmeter and the discomfort level described by the patients.

[5] = tested on: Patients that experience acute chest pain and are pre-diagnosed with hyperlipidemia; test: Atherosclerotic plaque size by quantitative coronary angiography in patients, 3 years (Example 6); assay type: in vivo, human; details: orally twice a day, (a) 50 mg nicotinic acid alone, (b) 50 mg nicotinic acid + 1135 mg leucine, (c) 50 mg nicotinic acid + 1135 mg leucine + 50 mg resveratrol, (d) 1135 mg leucine + 50 mg resveratrol
Experimental: The treatments are administered orally twice a day, for 3 years continuously. The size of atherosclerotic plaque is measured at day 0, months 6, 12, 18, 24, 30 and 36 by quantitative coronary angiography.

Sirt1 = Sirt1 level by Western blotting in C2C12 myotubes (Example 1)
[6] = group (e) 10 g nicotinic acid/kg diet alone
[7] = group (e) 3000 mg nicotinic acid alone

SMILES: CC(C)C[C@H](N)C(=O)O [leucine]
effect on cholesterol esters ([1]; leucine 24 g/kg diet alone): no independent effect
effect on total cholesterol ([1]; leucine 24 g/kg diet alone): no independent effect
effect on lifespan (C. elegans): no independent effect

SMILES: NC(=O)c1ccc[n+]([C@@H]2O[C@H](CO)[C@@H](O)[C@H]2O)c1 [nicotinamide riboside]
circulating level of nicotinic acid or nicotinamide riboside in a subject [2]: about 10 μM

cutaneous vasodilation compared to all the other groups including control groups ([3]; 10 g of nicotinic acid/kg diet alone, laser-Doppler flowmeter): significant higher
cutaneous vasodilation compared to all the other groups including placebo ([4]; 3000 mg of nicotinic acid alone, laser-Doppler flowmeter and discomfort level): significant higher
SMILES: O=C(O)c1cccnc1 [nicotinic acid]
effect of nicotinic acid alone on the variable studied (P-AMPK/AMPK), dose-response study (AMPK): no effect
HDL level in the blood stream compared to negative control group (atherogenic diet only) [3, 6]: significantly higher
triglyceride, LDL and cholesterol levels in the blood stream compared to negative control group (atherogenic diet only) [3, 6]: significantly lower
HDL level in the blood stream compared to negative control group (atherogenic diet only) ([3]; per kg diet: (a) 250 mg nicotinic acid alone, (b) 250 mg nicotinic acid + 24 g leucine, (c) 50 mg nicotinic acid + 24 g leucine + 12.5 mg resveratrol): similar, without statistically significant difference
triglyceride, LDL and cholesterol levels in the blood stream compared to negative control group (atherogenic diet only) ([3]; per kg diet: (a) 250 mg nicotinic acid alone, (b) 250 mg nicotinic acid + 24 g leucine, (c) 50 mg nicotinic acid + 24 g leucine + 12.5 mg resveratrol, (d) 24 g leucine + 12.5 mg resveratrol): similar, without statistically significant difference
atherosclerotic lesion size in the aorta ([3]; day 60, group (e) 10 g nicotinic acid/kg diet alone): significantly reduced
atherosclerotic lesion size in the aorta ([3]; day 60, per kg diet: (a) 250 mg nicotinic acid alone, (b) 250 mg nicotinic acid + 24 g leucine, (c) 50 mg nicotinic acid + 24 g leucine + 12.5 mg resveratrol, (d) 24 g leucine + 12.5 mg resveratrol): No significant reduction
HDL level compared to day 0 values ([4]; (a) 50 mg nicotinic acid alone, (b) 50 mg nicotinic acid + 1135 mg leucine, (c) 50 mg nicotinic acid + 1135 mg leucine + 50 mg resveratrol): similar, without statistically significant difference
triglyceride, LDL and cholesterol levels compared to day 0 values ([4]; (a) 50 mg nicotinic acid alone, (b) 50 mg nicotinic acid + 1135 mg leucine, (c) 50 mg nicotinic acid + 1135 mg leucine + 50 mg resveratrol, (d) 1135 mg leucine + 50 mg resveratrol): similar, without statistically significant difference
HDL level compared to day 0 values [4, 7]: significantly higher
triglyceride, LDL and cholesterol levels compared to day 0 values [4, 7]: significantly lower
atherosclerotic plaque (lesion) size compared to day 0 values [5]: similar, without statistically significant difference
decrease in cholesterol esters ([1]; nicotinic acid 1,000 mg/kg diet, p<0.002): 28%
decrease in total cholesterol ([1]; nicotinic acid 1,000 mg/kg diet, p<0.01): 20%
effect on lifespan (C. elegans): no independent effect
circulating level of nicotinic acid or nicotinamide riboside in a subject [2]: about 10 μM
Sirt1 levels (Sirt1; 24 hours, nicotinic acid 10 nM, leucine 0.5 mM, nicotinic acid alone): did not have a significant effect
effect of nicotinic acid alone on the variable studied (Sirt1), dose-response study (Sirt1; concentrations of nicotinic acid <100 nM alone): no effect
